Measured values from patent US11634381B2, “RUNX2 transcription factor inhibitors and uses thereof” (University of Maryland, Baltimore, priority 2015, dated 2023).

Columns and labels:
[1] = test system: MDA-231, MCF7, MDA-468, BT474 cells; test: Combination of compound 1 and CDK inhibitors, cell proliferation and colony assays; format: cell-based, human
breast cancer cells = test: Cell cycle analysis by flow cytometry; format: cell-based, human; conditions: 50 μM
Experimental: Cells (1×10^6 cells/ml) were starved in serum-free medium for 24 hrs, and released in 10% serum-medium with or without compound 1 (50 μM) for 16-24 hrs for cell cycle transition. Cells were then fixed in 70% ethanol at 4° C. for 1 hr, resuspended in 1 ml PBS containing 20 μg/ml propidium iodide, 20 μg/ml RNase A, incubated for 30 min at room temperature, and analyzed with a Becton Dickinson LSR-II at the Flow Cytometry Core Laboratory at the University of Maryland. Ten thousand events per sampl were collected and analyzed using the Cell-Quest (BD Biosciences).

COX-2 and NF-κb promoter = test: Luciferase reporter assay of promoters without Runt binding sequences; format: cell-based, human; conditions: MCF7-RUNX2 and MCF7-Empty cells, 0˜50 mM, 24 hrs
Experimental: Cells were plated in 96-well plates (30,000 cells/well) and incubated overnight. Cells were co-transfected with indicated luciferase-reporter plasmids (25 ng/well) and pSV-Renilla-Luc (Promega) (15 ng/well) for 6 hrs and compound 1 ([…]) was further treated for 18-48 hrs. COX-2 (P2-274)-Luc (−170bp˜+104bp) and control plasmids (PXP2-Luc) were kindly provided byDr. Miguel A. Iñiguez (Universidad Autónoma de Madrid, Spain), and pNF-kb-Luc was from Dr. Hancai Dan (University of Maryland). Luciferase assay was performed using the Dual-Glo Luciferase Assay Systems as per manufacturer's recommendation (Promega).

RUNX2 responsive genes = test: Q-RT-PCR of RUNX2 responsive genes; format: cell-based, human; conditions: 50 μM
Experimental: Total RNA was extracted using TRIzol (Life Technologies). One […] of total RNA was reverse transcribed with oligo-(dT) primer using the SuperScript first-strand synthesis system (Invitrogen) to synthesize cDNA. One μl of each cDNA was used for real-time RT-PCR using QuantiFast SYBR Green PCR Kit […]. mRNA expression of gene of interest relative to β-actin was calculated based on the threshold cycle (Ct) as 2^−D(DCt) method.

[2] = test system: MCF7-tet-off-Luc (-Doxy) and 231-Luc cells; test: In vivo lung metastasis assay (BLI); design: species or system NSG mice; conditions: 10 mg/kg
Experimental: For in vivo lung metastasis assay, MCF7-tet-off-Luc cells were grown for 3 days in the absence of Doxycyclin (−Doxy) and injected into the tail vein of the 8 week-old female NSG mice (1×10^6 cells/200 μl of PBS). After inoculation, the mice were randomly assigned to vehicle control and treatment groups. Vehicle (10% DMSO/90% PBS) and compound 1 (10 mg/kg) were injected i.p. 2 hrs after inoculation. The retention of the cells in the lung was monitored by noninvasive bioluminescence imaging for 24 hrs. For luciferase detection, 150 mg/mL D-luciferin (Caliper Life Sciences) in PBS was injected i.p. before imaging. Photometric measurement of metastasis was done by living Image software (Xenogen). In separate groups of mice, 231-Luc cells (1×10^6/200 μl of PBS) were injected, and the metastasis burden in the lung was quantified for 3 weeks.

Complex I = Complex I activity; format: cell-based, human; conditions: MDA-468 and MCF7 cells, 50 μM, 1-3 days
Experimental: In FIG. 26A MDA-231, MDA-468, MCF7, and BT-474 breast cancer cells were treated with compound 1 (50 μM) for 1-3 days. Complex I activity increased in MDA-468 and MCF7 cells. In FIG. 26B T47D-Vector control or T47D-RUNX2-clone #10 overexpressing cells; MCF7-Vector Control or RUNX2-clone #2 overexpressing cells were treated with 50 μM compound 1 for 1 day.

With `O=C(O)C1C2C=CC(C2)C1C(=O)Nc1ccc(Cl)c(Cl)c1` (stereo not drawn) [compound 1, 3-(N-(3,4-dichlorophenyl)carbamoyl)-5-norbornene-2-carboxylic acid] as the molecule, how does the “growth inhibition of BT474 cells” value [1] read?
Its value is “sensitive”.

What about the cell cycle distribution (breast cancer cells) of the same molecule?
The cell cycle distribution was “increased cell populations at the G1 phase with reduction at the S phase”.

What about the “COX-2 (P2-274)-Luc or pNF-κb-Luc promoter activities” value (COX-2 and NF-κb promoter) of the same molecule?
Its value is “no inhibitory effect”.

What about the “level of Sirt6 mRNA” value (RUNX2 responsive genes; MDA-231 cells, 6 hrs) of the same molecule?
The value was “increased”.

What about the “transcriptional levels of Glut-1 and LDHA” value (RUNX2 responsive genes; MDA-231 cells, 6 hrs) of the same molecule?
Its value is “reduced”.

What about the “mRNA expression levels of MMP13, VEGF, and MMP9” value (RUNX2 responsive genes; ectopic RUNX2-expressing MCF7 and T47D cells, 72 hrs) of the same molecule?
The value was “repressed”.

What about the “RUNX2-increased mRNA level of Glut-1 and LDHA” value (RUNX2 responsive genes; ectopic RUNX2-expressing T47D and MCF7 cells, 72 hrs) of the same molecule?
Its value is “significantly inhibited”.

And the “body weight and general health” value ([2]; NSG mice)?
Its value is “did not significantly decrease body weight”.

And the “colonization and outgrowth in the lung versus vehicle” value ([2]; 231-Luc cells, 3 weeks)?
The value was “significantly lower”.

And the “metastatic homing to the mouse lungs” value ([2]; MCF7-tet-off-Luc (-Doxy) cells)?
The value was “no influence”.

And the “lung retention of the cells” value ([2]; MCF7-tet-off-Luc (-Doxy) cells, 24 hrs)?
Its value is “significantly reduced”.

What about the “Complex I activity” value (Complex I) of the same molecule?
The value was “increased”.
